A word on the pIC50: it is the negative decadic logarithm of the IC50, by convention in mol/L. The low end stands for a large IC50, the high end for a small IC50.

For this assay, the target named is T1, P2X7 (UniProt Q99572).
T1 sequence (Q99572 1-595): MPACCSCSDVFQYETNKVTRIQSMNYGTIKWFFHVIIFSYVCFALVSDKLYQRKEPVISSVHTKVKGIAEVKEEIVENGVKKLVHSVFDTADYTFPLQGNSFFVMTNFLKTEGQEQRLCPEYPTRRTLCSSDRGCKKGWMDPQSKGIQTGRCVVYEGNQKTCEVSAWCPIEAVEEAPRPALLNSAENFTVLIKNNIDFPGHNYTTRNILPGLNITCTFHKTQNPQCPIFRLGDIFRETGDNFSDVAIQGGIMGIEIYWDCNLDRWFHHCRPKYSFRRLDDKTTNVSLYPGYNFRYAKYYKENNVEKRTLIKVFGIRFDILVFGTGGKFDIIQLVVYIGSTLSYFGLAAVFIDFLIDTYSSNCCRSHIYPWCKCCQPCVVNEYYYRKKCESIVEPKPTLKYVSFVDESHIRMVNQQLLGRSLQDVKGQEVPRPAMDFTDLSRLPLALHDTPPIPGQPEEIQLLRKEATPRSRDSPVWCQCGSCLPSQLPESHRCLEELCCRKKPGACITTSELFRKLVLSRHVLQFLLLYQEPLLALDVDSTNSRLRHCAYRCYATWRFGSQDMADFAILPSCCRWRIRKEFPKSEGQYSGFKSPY
The experiment in a line: pIC50 values for P2X7 (Table 1). Format: cell-based. In short, it runs like this:
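Fluo-3-loaded 1321N1 cells expressing human P2X7 or HEK293 cells expressing rat P2X7, preincubated 20 min at room temperature with antagonist in HBSS/Hepes/probenecid buffer with 2 mM CaCl2. BzATP agonist at 100 μM final (human) or 5 μM final (rat); fluorescence read 5 min, peak normalized to 5 μM ionomycin response.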
`COc1cc(Br)c(CNC(=O)N2C=CC(=O)CC2c2ccc(F)cc2)cc1OC` (stereo not drawn) [Compound 75, 2-(4-Fluoro-phenyl)-4-oxo-3,4-dihydro-2H-pyridine-1-carboxylic acid 2-bromo-4,5-dimethoxy-benzylamide]: the pIC50 stood at 5.075.

Regarding `COc1cc(NC(=O)N2C=CC(=O)C[C@H]2c2ccc(F)cc2)ccc1F` [Compound 76, (S)-2-(4-Fluoro-phenyl)-4-oxo-3,4-dihydro-2H-pyridine-1-carboxylic acid (4-fluoro-3-methoxy-phenyl)-amide], the pIC50 was found to be 6.76.

`Cc1cc(Br)c(NC(=O)N2C=CC(=O)C[C@H]2c2ccc(F)cc2)cc1C(=O)OC(C)(C)C` [Compound 77, 4-Bromo-5-{[(S)-2-(4-fluoro-phenyl)-4-oxo-3,4-dihydro-2H-pyridine-1-carbonyl]amino}-2-methyl-benzoic acid tert-butyl ester] showed a pIC50 of 6.67.

In turn, `COc1cc(NC(=O)N2C=CC(=O)C[C@H]2c2cc(F)cc(F)c2)c(Br)cc1C` [Compound 78, (S)-2-(3,5-Difluoro-phenyl)-4-oxo-3,4-dihydro-2H-pyridine-1-carboxylic acid (2-bromo-5-methoxy-4-methyl-phenyl)-amide] displayed a negative logarithm of the IC50 (pIC50) of 7.675.

In the case of `COc1cc(NC(=O)N2C=CC(=O)C[C@@H]2c2cc(F)cc(F)c2)c(Br)cc1C` [Compound 79, (R)-2-(3,5-Difluoro-phenyl)-4-oxo-3,4-dihydro-2H-pyridine-1-carboxylic acid (2-bromo-5-methoxy-4-methyl-phenyl)-amide], the pIC50 was determined as 5.475.

For `COc1cc(NC(=O)N2C=CC(=O)CC2c2ccc(F)cc2)cc(OC)c1OC` (stereo not drawn) [Compound 80, 2-(4-Fluoro-phenyl)-4-oxo-3,4-dihydro-2H-pyridine-1-carboxylic acid (3,4,5-trimethoxy-phenyl)-amide], the pIC50 came out at 5.

In turn, `COc1cc(NC(=O)N2C=CC(=O)C[C@H]2c2ccc(F)c(F)c2)c(Br)cc1C` [Compound 81, (S)-2-(3,4-Difluoro-phenyl)-4-oxo-3,4-dihydro-2H-pyridine-1-carboxylic acid (2-bromo-5-methoxy-4-methyl-phenyl)-amide] yielded a negative-log IC50 (pIC50) of 7.54.

Compound `COc1cc(NC(=O)N2C=CC(=O)C[C@@H]2c2ccc(F)c(F)c2)c(Br)cc1C` [Compound 82, (R)-2-(3,4-Difluoro-phenyl)-4-oxo-3,4-dihydro-2H-pyridine-1-carboxylic acid (2-bromo-5-methoxy-4-methyl-phenyl)-amide] displayed a negative logarithm of the IC50 (pIC50) of 5.31.

In turn, `C[C@H](O)c1cc(NC(=O)N2C=CC(=O)C[C@H]2c2ccc(F)cc2)c(Br)cc1Cl` [Compound 83, (S)-2-(4-Fluoro-phenyl)-4-oxo-3,4-dihydro-2H-pyridine-1-carboxylic acid [2-bromo-4-chloro-5-((S)-1-hydroxy-ethyl)-phenyl]-amide] yielded a pIC50 of 7.56.

`C[C@@H](O)c1cc(NC(=O)N2C=CC(=O)C[C@H]2c2ccc(F)cc2)c(Br)cc1Cl` [Compound 84, (S)-2-(4-Fluoro-phenyl)-4-oxo-3,4-dihydro-2H-pyridine-1-carboxylic acid [2-bromo-4-chloro-5-((R)-1-hydroxy-ethyl)-phenyl]-amide]: the pIC50 turned out to be 6.67.

With `O=C1C=CN(C(=O)Nc2c(F)cc(F)cc2Br)C(c2ccc(F)cc2)C1` (stereo not drawn) [Compound 85, 2-(4-Fluoro-phenyl)-4-oxo-3,4-dihydro-2H-pyridine-1-carboxylic acid (2-bromo-4,6-difluoro-phenyl)-amide], the negative-log IC50 (pIC50) stood at 5.

For `O=C1C=CN(C(=O)Nc2ccsc2Br)C(c2ccc(F)cc2)C1` (stereo not drawn) [Compound 86, 2-(4-Fluoro-phenyl)-4-oxo-3,4-dihydro-2H-pyridine-1-carboxylic acid (2-bromo-thiophen-3-yl)-amide], the negative logarithm of the IC50 (pIC50) is on record as 6.725.

Turning to `CCc1cc(OC)c(OC)cc1NC(=O)N1C=CC(=O)C[C@H]1c1ccc(F)cc1` [Compound 87, (S)-2-(4-Fluoro-phenyl)-4-oxo-3,4-dihydro-2H-pyridine-1-carboxylic acid (2-ethyl-4,5-dimethoxy-phenyl)-amide], the negative logarithm of the IC50 (pIC50) is 8.36.

Compound `COc1ccc(NC(=O)N2C=CC(=O)C[C@H]2c2cccc(F)c2)cc1OC` [Compound 88, (S)-2-(3-Fluoro-phenyl)-4-oxo-3,4-dihydro-2H-pyridine-1-carboxylic acid (3,4-dimethoxy-phenyl)-amide] gave a pIC50 of 6.32.

Compound `COc1ccc(NC(=O)N2C=CC(=O)C[C@H]2c2ccc(F)cc2)c(Br)c1` [Compound 89, (S)-2-(4-Fluoro-phenyl)-4-oxo-3,4-dihydro-2H-pyridine-1-carboxylic acid (2-bromo-4-methoxy-phenyl)-amide] registered a pIC50 of 7.45.

`O=C1C=CN(C(=O)Nc2ccc3cc[nH]c3c2)C(c2ccc(F)cc2)C1` (stereo not drawn) [Compound 90, 2-(4-Fluoro-phenyl)-4-oxo-3,4-dihydro-2H-pyridine-1-carboxylic acid (1H-indol-6-yl)-amide] came in with a pIC50 of 6.615.

For `Cc1cc2cc(NC(=O)N3C=CC(=O)CC3c3ccc(F)cc3)ccc2o1` (stereo not drawn) [Compound 91, 2-(4-Fluoro-phenyl)-4-oxo-3,4-dihydro-2H-pyridine-1-carboxylic acid (2-methyl-benzofuran-5-yl)-amide], the pIC50 was 6.315.

For `Cc1cc(Cl)c(OCCO)cc1NC(=O)N1C=CC(=O)C[C@H]1c1ccc(F)cc1` [Compound 92, (S)-2-(4-Fluoro-phenyl)-4-oxo-3,4-dihydro-2H-pyridine-1-carboxylic acid [4-chloro-5-(2-hydroxy-ethoxy)-2-methyl-phenyl]-amide], the pIC50 worked out at 8.023.

In turn, `COC(=O)c1cccc(NC(=O)N2C=CC(=O)C[C@H]2c2ccc(F)cc2)c1C` [Compound 93, 3-{[(S)-2-(4-Fluoro-phenyl)-4-oxo-3,4-dihydro-2H-pyridine-1-carbonyl]-amino}-2-methyl-benzoic acid methyl ester] yielded a pIC50 of 7.44.

`COC(=O)c1cccc(NC(=O)N2C=CC(=O)C[C@@H]2c2ccc(F)cc2)c1C` [Compound 94, 3-{[(R)-2-(4-Fluoro-phenyl)-4-oxo-3,4-dihydro-2H-pyridine-1-carbonyl]-amino}-2-methyl-benzoic acid methyl ester]: the negative-log IC50 (pIC50) amounted to 6.13.

Regarding `Cc1ccc(C)c(NC(=O)N2C=CC(=O)C[C@H]2c2ccc(F)cc2)c1` [Compound 95, (S)-2-(4-Fluoro-phenyl)-4-oxo-3,4-dihydro-2H-pyridine-1-carboxylic acid (2,5-dimethyl-phenyl)-amide], the pIC50 turned out to be 7.9775.

As to `COc1ccc(Br)c(NC(=O)N2C=CC(=O)C[C@H]2c2ccc(F)cc2)c1` [Compound 96, (S)-2-(4-Fluoro-phenyl)-4-oxo-3,4-dihydro-2H-pyridine-1-carboxylic acid (2-bromo-5-methoxy-phenyl)-amide], the pIC50 came to 7.875.

Turning to `Cc1cccc(NC(=O)N2C=CC(=O)C[C@H]2c2ccc(F)cc2)c1C` [Compound 97, (S)-2-(4-Fluoro-phenyl)-4-oxo-3,4-dihydro-2H-pyridine-1-carboxylic acid (2,3-dimethyl-phenyl)-amide], the pIC50 was 7.74. The pIC50 values of the last two compounds are within 0.2 log units of each other.

`O=C1C=CN(C(=O)Nc2cc(CO)c(Cl)cc2Br)[C@H](c2ccc(F)cc2)C1` [Compound 98, (S)-2-(4-Fluoro-phenyl)-4-oxo-3,4-dihydro-2H-pyridine-1-carboxylic acid (2-bromo-4-chloro-5-hydroxymethyl-phenyl)-amide] gave a pIC50 of 7.475.

Compound `Cc1cc(C)c(Br)c(NC(=O)N2C=CC(=O)C[C@H]2c2ccc(F)cc2)c1` [Compound 99, (S)-2-(4-Fluoro-phenyl)-4-oxo-3,4-dihydro-2H-pyridine-1-carboxylic acid (2-bromo-3,5-dimethyl-phenyl)-amide] registered a pIC50 of 7.98.

`COc1ccc(NC(=O)N2C=CC(=O)C[C@H]2c2ccc(F)cc2)c(C)c1` [Compound 100, (S)-2-(4-Fluoro-phenyl)-4-oxo-3,4-dihydro-2H-pyridine-1-carboxylic acid (4-methoxy-2-methyl-phenyl)-amide] yielded a pIC50 of 7.05.

For the compound `Cn1ccc2ccc(NC(=O)N3C=CC(=O)C[C@H]3c3ccc(F)cc3)cc21` [Compound 101, (S)-2-(4-Fluoro-phenyl)-4-oxo-3,4-dihydro-2H-pyridine-1-carboxylic acid (1-methyl-1H-indol-6-yl)-amide], the pIC50 amounted to 7.57.

The compound `Cc1cc2cccnc2cc1NC(=O)N1C=CC(=O)C[C@H]1c1ccc(F)cc1` [Compound 102, (S)-2-(4-Fluoro-phenyl)-4-oxo-3,4-dihydro-2H-pyridine-1-carboxylic acid (6-methyl-quinolin-7-yl)-amide] registered a pIC50 of 6.56.

Compound `Cc1ccc(NC(=O)N2C=CC(=O)C[C@H]2c2ccc(F)cc2)c(C)c1` [Compound 103, (S)-2-(4-Fluoro-phenyl)-4-oxo-3,4-dihydro-2H-pyridine-1-carboxylic acid (2,4-dimethyl-phenyl)-amide] showed a pIC50 of 7.415.

The compound `Cc1cc(C)cc(NC(=O)N2C=CC(=O)C[C@H]2c2ccc(F)cc2)c1` [Compound 104, (S)-2-(4-Fluoro-phenyl)-4-oxo-3,4-dihydro-2H-pyridine-1-carboxylic acid (3,5-dimethyl-phenyl)-amide] yielded a pIC50 of 7.655.

The values above are taken from US8153809B2, “Dihydropyridone ureas as P2X7 modulators” (Roche Palo Alto LLC, priority 2008, dated 2012).
